“Also recorded” adds a separate entry of the source.
Columns and labels:
[1] = tested on: liver; conditions: mouse, in vivo
Method: Animals. […] Wild type, p53^−/−, INK4a/Arf^−/− and p53^−/−;INK4a/Arf^−/− mice were treated twice a week with 12 consecutive i.p. (intraperitoneal) injections of 1 ml/kg CCl4 to induce liver fibrosis. GFAP-tTA;TRE-shp53 mice were treated similarly for 2 weeks. Animals were sacrificed 48-72 hours after the last injection and their livers used for further analysis. To modify NK cell function, mice were treated three times weekly either i.v. with an anti-Asialo-GM1 antibody (25 μl in 200 μl saline, Wako, Va., USA) for 10 or 20 days or i.p. with polyI:C (Sigma, USA) 1 mg/kg.
Histological analysis. Paraffin embedded tissue sections were stained with hematoxylin-eosin for routine examination, or with Sirius Red for visualization of fibrotic deposition. At least 3 whole sections from each animal were scanned by Laser Scanner Cytometry (CompuCyte, MA) for fibrosis quantification. These images were quantified using NIH ImageJ software (http://rsb.info.nih.gov/ij/). We calculated the amount of fibrotic tissue in diseased animals relatively to the basal amount of Sirius Red staining present in normal liver.
Frozen sections of liver tissue, or adherent cells were fixed with 0.5% Gluteraldehyde in PBS for 15 min, washed with PBS supplemented with 1 mM MgCl2 and stained for 5-6 hrs in PBS containing 1 mM MgCl2, 1 mg/ml X-Gal and 5 mM of each Potassium ferricyanide and Potassium ferrocyanide. Sections were counterstained with Eosin.
To investigate the relationship between fibrosis and cellular senescence, 7-9 week old female mice were subjected to a six week treatment with CCl4, a chemical widely used to induce fibrosis in experimental animals (Bataller and Brenner, 2005, J. Clin. Invest. 115, 209-218, the contents of which are hereby incorporated by reference).

[2] = tested on: senescent IMR-90 cells; assay: In vitro killing assay of growing and senescent IMR-90 cells by YT cells (NK cell line); type: cell-based, human; conditions: range of target:effector cell ratios
Method: Tissue culture. Human IMR-90 foetal lung fibroblasts (ATCC) and primary human hepatic myofibroblasts (activated HSCs) (Dominion Pharmakine, Spain) were grown in standard conditions (Narita et al., 2003). Senescence was induced by prolonged culturing, etoposide (100 μM, Sigma, USA) treatment, or infection of IMR-90 cells with oncogenic rasV12 as described (Narita et al., 2003). For in vitro cytotoxicity assays, growing or senescent cells were plated in 6-well plates at 50,000 cells per well. 5×10^5 YT cells (from DSMZ, Germany) were subsequently added to target cells. The plates were incubated under normal conditions for 12 hours, and then NK cell cytotoxicity was determined using crystal violet staining of remaining adherent cells or followed with a Zeiss AxioObserver microscope equipped with 37° C. incubator hood and 6.3% CO2 cover.
To test if a Perforin mediated pathway is involved in senescent cell killing in vitro, the in vitro killing assays of growing and senescent IMR-90 cells were used (the assay is described at Krizhanovsky, V. et al., “Senescence of Activated Stellate Cells Limits Liver Fibrosis,” Cell, 134, 657-667 (Aug. 22, 2008), which is hereby incorporated by reference). Growing and senescent IMR-90 cells were incubated with different amounts of YT cells (NK cell line) in presence or absence of granule exocytosis pathway inhibitor Concanamycin A (CMA). […]

[3] = tested on: primary human activated HSCs; assay: Senescence induction in cultured primary human activated HSCs; type: cell-based; conditions: etoposide 100 μM, within several days of treatment
[4] = tested on: senescent activated HSCs in fibrotic livers; assay: Fibrosis reversion and senescent cell clearance in CCl4 treated mice with modified NK cell function; type: in vivo, mouse
Method: Animals. […] GFAP-tTA mice were obtained from the Jackson Laboratory.
Sections were counterstained with Eosin.
Immunoblotting. Liver tissue was lysed in Laemmli buffer using a tissue homogenizer. Equal amounts of protein were separated on 12% SDS-polyacrylamide gels and transferred to PVDF membranes. Detection was performed using anti-αSMA (DakoCytomation, Denmark), anti-13Actin (AC-15, Sigma, USA).
Expression array analysis and quantitative RT-PCR. […] Affymetrix Human Genome U133 Plus 2.0Array were used to identify genes expressed in HSC.
To determine whether NK cells can target senescent cells in vivo and their impact on liver fibrosis, modulating NK cell function was tested for how it would influence the frequency of senescent activated HSCs and fibrosis resolution in livers obtained from mice following a six week course of CCl4 or at various times after ceasing treatment. To deplete NK cells mice were treated with neutralizing antibodies [anti-AsialoGM1 (Radaeva et al., 2006; Xue et al., 2007)] during the period following CCl4 withdrawal. Conversely, to enhance the immune response, we treated mice with polyinosinic-polycytidylic acid (polyI:C), which induces interferon-γ and enhances NK cell activity in the liver (Radaeva et al., 2006).

[5] = wild type mice after six week CCl4, treated 10 or 20 days following CCl4 withdrawal, compared to saline controls

3,5-diethoxycarbonyl-1,4-dihydrocollidine [DDC]
accumulation of senescent cells in livers of treated mice [1]: accumulated

ClC(Cl)(Cl)Cl [CCl4]
accumulation of senescent cells in livers of treated mice [1]: accumulated in fibrotic livers | increase in Sirius Red-positive area over untreated controls [1]: 3 to 4 fold | liver area Sirius Red-positive (quantitative laser scanning cytometry) [1]: Approximately 2%

C/C=C/[C@H]1O[C@@](O)([C@@H](C)[C@H](O)[C@H](C)[C@H]2OC(=O)/C(OC)=C/C(C)=C/[C@@H](C)[C@@H](O)[C@@H](CC)[C@@H](O)[C@H](C)C/C(C)=C/C=C/[C@@H]2OC)C[C@@H](O[C@H]2C[C@@H](O)[C@H](OC(N)=O)[C@@H](C)O2)[C@@H]1C [CMA, Concanamycin A]
preferential killing of senescent cells by NK cells (YT) in presence of inhibitor [2]: significantly inhibited

COc1cc([C@@H]2c3cc4c(cc3[C@@H](O[C@@H]3O[C@@H]5CO[C@@H](C)O[C@H]5[C@H](O)[C@H]3O)[C@H]3COC(=O)[C@H]23)OCO4)cc(OC)c1O [etoposide]
senescence of activated HSCs (proliferation stop, SA-β-gal activity, heterochromatic foci) [3]: undergo senescence

polyinosinic-polycytidylic acid [polyI:C]
αSMA mRNA and protein levels in fibrotic livers (activated HSC marker) ([4]; quantitative RT-PCR and immunoblot, 10 days treatment after CCl4, compared to saline): decreased | fibrosis / fibrotic tissue (Sirius Red staining) [4, 5]: less fibrotic tissue; also recorded: depleted more efficiently | senescent cells (SA-β-gal positive) in fibrotic liver [4, 5]: fewer senescent cells; also recorded: enhanced clearance of senescent cells

From patent US20100310504A1, “METHODS FOR TREATING FIBROSIS BY MODULATING CELLULAR SENESCENCE” (priority 2007, published 2010)
